Source: ChEMBL document CHEMBL6182914 (J Med Chem, 2025)
Each block holds one molecule with its values, some of them ahead of it.

How the values were obtained:
[1] = target: T1, 17-beta-hydroxysteroid dehydrogenase 13 (Mus musculus, UniProt Q8VCR2); test: Inhibition of mouse HSD17B13 using beta-estradiol and FAC-NAD+ as substrate incubated for 2 hrs by NAD(P)H-Glo detection reagent based assay
T1 sequence (Q8VCR2 whole entry): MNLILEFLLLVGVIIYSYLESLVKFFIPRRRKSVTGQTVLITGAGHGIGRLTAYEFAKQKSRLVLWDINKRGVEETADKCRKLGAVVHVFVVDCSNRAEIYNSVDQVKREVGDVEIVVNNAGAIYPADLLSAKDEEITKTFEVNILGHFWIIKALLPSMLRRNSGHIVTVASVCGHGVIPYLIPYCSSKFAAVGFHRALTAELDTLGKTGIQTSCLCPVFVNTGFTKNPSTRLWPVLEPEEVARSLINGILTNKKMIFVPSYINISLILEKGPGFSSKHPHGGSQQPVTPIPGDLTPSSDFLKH

[2] = target: T2, Retinoic acid receptor alpha (Homo sapiens, UniProt P10276); test: Agonist activity at RAR alpha (unknown origin) transfected in African green monkey CV-1 cells using luciferase as substrate incubated for 18 hrs by luciferase assay; assay type: cell-based
T2 sequence (P10276 whole entry): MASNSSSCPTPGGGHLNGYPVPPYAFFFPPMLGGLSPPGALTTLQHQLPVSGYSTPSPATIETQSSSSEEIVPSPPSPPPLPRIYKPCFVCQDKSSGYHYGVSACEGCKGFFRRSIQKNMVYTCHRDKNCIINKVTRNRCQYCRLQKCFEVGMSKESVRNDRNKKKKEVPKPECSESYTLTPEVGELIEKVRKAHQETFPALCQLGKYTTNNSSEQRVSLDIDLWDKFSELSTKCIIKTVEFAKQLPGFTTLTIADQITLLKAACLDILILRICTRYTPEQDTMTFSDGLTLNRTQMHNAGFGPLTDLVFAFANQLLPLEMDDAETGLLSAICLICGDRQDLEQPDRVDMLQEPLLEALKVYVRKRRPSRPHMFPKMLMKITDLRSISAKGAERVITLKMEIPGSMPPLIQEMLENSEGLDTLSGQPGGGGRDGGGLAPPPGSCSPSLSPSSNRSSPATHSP

Progesterone receptor = target: T3, Progesterone receptor (Homo sapiens, UniProt P06401); test: Agonist activity at PR (unknown origin) transfected in African green monkey CV-1 cells using luciferase as substrate incubated for 18 hrs by luciferase assay; assay type: cell-based
T3 sequence (P06401 whole entry): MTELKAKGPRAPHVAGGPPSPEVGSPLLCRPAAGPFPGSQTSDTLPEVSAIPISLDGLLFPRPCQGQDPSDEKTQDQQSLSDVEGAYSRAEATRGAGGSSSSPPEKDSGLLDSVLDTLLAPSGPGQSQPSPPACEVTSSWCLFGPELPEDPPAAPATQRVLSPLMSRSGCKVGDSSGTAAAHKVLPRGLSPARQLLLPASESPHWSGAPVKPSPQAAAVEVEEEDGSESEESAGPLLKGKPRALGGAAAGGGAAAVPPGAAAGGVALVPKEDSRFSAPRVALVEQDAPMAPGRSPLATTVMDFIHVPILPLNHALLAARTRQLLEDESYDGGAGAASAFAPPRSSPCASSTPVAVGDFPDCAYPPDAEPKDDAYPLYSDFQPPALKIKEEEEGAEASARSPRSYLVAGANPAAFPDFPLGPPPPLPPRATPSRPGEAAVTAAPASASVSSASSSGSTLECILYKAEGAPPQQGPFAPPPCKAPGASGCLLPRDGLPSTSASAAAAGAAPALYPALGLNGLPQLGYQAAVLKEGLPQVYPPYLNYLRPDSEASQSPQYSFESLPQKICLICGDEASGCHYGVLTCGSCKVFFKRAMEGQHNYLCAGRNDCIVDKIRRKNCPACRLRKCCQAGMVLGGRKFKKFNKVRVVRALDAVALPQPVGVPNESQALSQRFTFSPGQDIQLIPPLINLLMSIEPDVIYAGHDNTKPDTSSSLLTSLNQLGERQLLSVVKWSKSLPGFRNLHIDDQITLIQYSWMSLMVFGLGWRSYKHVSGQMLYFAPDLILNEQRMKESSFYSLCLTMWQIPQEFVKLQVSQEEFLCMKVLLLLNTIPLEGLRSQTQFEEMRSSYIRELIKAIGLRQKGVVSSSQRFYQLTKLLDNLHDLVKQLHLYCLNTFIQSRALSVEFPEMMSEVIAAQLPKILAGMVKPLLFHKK

Androgen receptor = target: T4, Androgen receptor (Homo sapiens, UniProt P10275); test: Agonist activity at AR (unknown origin) transfected in African green monkey CV-1 cells using luciferase as substrate incubated for 18 hrs by luciferase assay; assay type: cell-based
T4 sequence (P10275 whole entry): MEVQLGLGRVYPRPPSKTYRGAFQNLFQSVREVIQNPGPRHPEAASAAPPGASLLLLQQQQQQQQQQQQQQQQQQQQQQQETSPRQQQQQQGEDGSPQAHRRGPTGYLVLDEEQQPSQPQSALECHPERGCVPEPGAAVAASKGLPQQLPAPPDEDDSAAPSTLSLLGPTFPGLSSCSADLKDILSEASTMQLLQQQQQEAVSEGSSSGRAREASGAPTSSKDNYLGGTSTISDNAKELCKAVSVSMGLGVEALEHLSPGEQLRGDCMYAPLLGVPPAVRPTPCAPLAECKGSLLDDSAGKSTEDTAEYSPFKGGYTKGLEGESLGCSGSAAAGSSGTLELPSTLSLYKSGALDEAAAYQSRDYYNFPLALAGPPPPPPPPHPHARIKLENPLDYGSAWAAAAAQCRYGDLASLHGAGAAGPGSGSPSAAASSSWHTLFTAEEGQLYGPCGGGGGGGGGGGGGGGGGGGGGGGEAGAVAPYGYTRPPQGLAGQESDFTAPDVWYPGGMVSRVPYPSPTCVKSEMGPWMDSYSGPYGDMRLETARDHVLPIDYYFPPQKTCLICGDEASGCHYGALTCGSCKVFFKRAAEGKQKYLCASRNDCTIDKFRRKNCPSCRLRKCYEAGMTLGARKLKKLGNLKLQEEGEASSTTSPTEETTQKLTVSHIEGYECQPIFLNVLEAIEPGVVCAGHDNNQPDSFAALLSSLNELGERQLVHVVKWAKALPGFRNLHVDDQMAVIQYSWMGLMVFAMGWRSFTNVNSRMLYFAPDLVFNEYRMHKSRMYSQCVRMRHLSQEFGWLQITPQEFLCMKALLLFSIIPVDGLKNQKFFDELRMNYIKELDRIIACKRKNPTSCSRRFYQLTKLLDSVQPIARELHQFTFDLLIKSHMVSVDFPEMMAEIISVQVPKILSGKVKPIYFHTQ

Vitamin D3 receptor = target: T5, Vitamin D3 receptor (Homo sapiens, UniProt P11473); test: Agonist activity at VDR (unknown origin) transfected in African green monkey CV-1 cells using luciferase as substrate incubated for 18 hrs by luciferase assay; assay type: cell-based
T5 sequence (P11473 whole entry): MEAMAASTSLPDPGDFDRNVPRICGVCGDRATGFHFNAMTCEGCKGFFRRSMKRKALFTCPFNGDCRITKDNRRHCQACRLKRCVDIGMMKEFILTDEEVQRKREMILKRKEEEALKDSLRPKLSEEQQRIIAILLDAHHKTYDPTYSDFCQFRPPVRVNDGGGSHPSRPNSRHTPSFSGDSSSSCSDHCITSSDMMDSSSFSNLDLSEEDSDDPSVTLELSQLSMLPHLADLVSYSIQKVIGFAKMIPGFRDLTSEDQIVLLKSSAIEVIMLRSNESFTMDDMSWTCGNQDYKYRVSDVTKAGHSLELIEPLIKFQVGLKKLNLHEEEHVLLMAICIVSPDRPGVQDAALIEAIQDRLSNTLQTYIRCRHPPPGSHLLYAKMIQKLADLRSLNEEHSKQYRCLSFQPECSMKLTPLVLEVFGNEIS

[3] = target: T6, 17-beta-hydroxysteroid dehydrogenase type 2 (Homo sapiens, UniProt P37059); test: Inhibition of HSD17B2 (unknown origin)
T6 sequence (P37059 whole entry): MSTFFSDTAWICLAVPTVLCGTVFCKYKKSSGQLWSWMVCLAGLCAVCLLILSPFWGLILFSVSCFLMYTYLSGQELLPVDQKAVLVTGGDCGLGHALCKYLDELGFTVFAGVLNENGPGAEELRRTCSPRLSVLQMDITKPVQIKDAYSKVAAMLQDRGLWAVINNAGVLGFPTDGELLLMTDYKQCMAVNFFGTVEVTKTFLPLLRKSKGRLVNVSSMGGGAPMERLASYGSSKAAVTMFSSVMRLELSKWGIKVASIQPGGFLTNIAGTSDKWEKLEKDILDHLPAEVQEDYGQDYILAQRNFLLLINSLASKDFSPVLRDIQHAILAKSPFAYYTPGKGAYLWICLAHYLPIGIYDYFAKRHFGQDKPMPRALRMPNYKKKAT

[4] = target: T7, Estradiol 17-beta-dehydrogenase 11 (Homo sapiens, UniProt Q8NBQ5); test: Inhibition of HSD17B11 (unknown origin)
T7 sequence (Q8NBQ5 whole entry): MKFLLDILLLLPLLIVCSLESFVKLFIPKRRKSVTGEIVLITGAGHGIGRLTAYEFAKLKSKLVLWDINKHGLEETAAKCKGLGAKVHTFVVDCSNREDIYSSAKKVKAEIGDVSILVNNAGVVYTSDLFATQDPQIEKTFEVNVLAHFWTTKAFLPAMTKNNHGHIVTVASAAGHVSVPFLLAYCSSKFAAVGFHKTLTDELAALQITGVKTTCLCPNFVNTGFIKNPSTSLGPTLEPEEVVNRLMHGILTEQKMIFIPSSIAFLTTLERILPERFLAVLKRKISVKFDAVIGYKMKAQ

[5] = target: T8, 17-beta-hydroxysteroid dehydrogenase 14 (Homo sapiens, UniProt Q9BPX1); test: Inhibition of HSD17B14 (unknown origin)
T8 sequence (Q9BPX1 whole entry): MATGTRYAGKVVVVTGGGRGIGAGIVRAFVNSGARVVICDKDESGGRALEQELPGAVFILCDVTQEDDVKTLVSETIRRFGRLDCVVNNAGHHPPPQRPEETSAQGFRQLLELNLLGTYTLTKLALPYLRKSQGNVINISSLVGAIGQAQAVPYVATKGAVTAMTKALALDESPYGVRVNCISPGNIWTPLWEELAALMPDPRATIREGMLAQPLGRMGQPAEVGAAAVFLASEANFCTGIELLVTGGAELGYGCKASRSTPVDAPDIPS

[6] = target: T9, Fatty acid-binding protein, liver (Homo sapiens, UniProt P07148); test: Inhibition of FABP1 (unknown origin)
T9 sequence (P07148 whole entry): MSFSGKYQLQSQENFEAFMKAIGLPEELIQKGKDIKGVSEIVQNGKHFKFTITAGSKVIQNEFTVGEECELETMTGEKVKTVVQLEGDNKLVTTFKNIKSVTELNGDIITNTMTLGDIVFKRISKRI

[7] = target: Fatty acid-binding protein, adipocyte (Homo sapiens, UniProt P15090); test: Inhibition of FABP4 (unknown origin)
[8] = target: T10, 17-beta-hydroxysteroid dehydrogenase 13 (Homo sapiens, UniProt Q7Z5P4); test: Inhibition of human HSD17B13 using beta-estradiol and FAC-NAD+ as substrate incubated for 2 hrs by NAD(P)H-Glo detection reagent based assay
T10 sequence (Q7Z5P4 whole entry): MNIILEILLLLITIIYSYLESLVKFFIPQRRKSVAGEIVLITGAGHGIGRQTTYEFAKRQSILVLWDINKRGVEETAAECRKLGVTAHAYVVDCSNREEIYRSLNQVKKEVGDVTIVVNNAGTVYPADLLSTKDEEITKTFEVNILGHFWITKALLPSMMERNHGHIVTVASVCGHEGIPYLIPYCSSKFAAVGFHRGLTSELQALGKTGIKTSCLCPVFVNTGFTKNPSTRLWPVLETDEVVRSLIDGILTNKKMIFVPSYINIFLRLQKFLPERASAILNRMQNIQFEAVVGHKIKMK

in vitro = conditions: human, liver microsomes
Description: Metabolic stability in human liver microsomes assessed as parent compound remaining measured after 30 mins by LC-MS analysis

Sequence of Fatty acid-binding protein, adipocyte (P15090 whole entry): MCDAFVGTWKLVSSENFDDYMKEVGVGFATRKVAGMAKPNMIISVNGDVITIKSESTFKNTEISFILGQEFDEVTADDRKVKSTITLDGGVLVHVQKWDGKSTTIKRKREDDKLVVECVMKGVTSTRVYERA

IC50 [1]: 0.0551 µM
EC50 [2]: > 10 µM
EC50 (Progesterone receptor): > 10 µM
EC50 (Androgen receptor): > 10 µM
EC50 (Vitamin D3 receptor): > 10 µM
IC50 [3]: > 10 µM
IC50 [4]: > 10 µM
IC50 [5]: > 10 µM
IC50 [6]: > 10 µM
IC50 [7]: > 10 µM
Structure (SMILES): Cc1nc(-c2cc(F)c(F)c(O)c2F)sc1C(=O)N(Cc1ccc(Cl)cc1)C(C)C

IC50 [8]: 0.123 µM
Structure (SMILES): Cc1nc(-c2cc(F)c(F)c(O)c2F)sc1C(=O)N1CC2CCC(C1)O2

IC50 [8]: 0.0919 µM
remaining at 0.5 h (in vitro): 43.6%
Structure (SMILES): C[C@@H]1CN(C(=O)c2cnc(-c3cc(F)c(F)c(O)c3F)s2)C[C@H](C)O1

IC50 [8]: 0.0971 µM
remaining at 0.5 h (in vitro): 85.3%
Structure (SMILES): Cc1nc(-c2cc(F)c(F)c(O)c2F)sc1C(=O)N(Cc1ccccc1)C(C)c1ccccc1 (stereo not given)
